Results published in the NIST ThermoML archive (doi:10.1016/j.jct.2011.07.006).

Experiment: xn = mol fraction of the nth substance listed
Conditions: Gas, Buoyancy - hydrostatic balance with magnetic suspension - one sinker

N#N [nitrogen] + O=C=O
mass density [kg/m3]
Conditions | x2 = 0.1001 | x2 = 0.1505
250.04 K, 12011 kPa | 188.824 | –
250.04 K, 14015 kPa | 220.196 | –
250.04 K, 16024 kPa | 250.228 | –
250.04 K, 18041 kPa | 278.626 | –
250.04 K, 19866 kPa | 302.682 | –
250.05 K, 1985.1 kPa | 29 | –
250.05 K, 3997.3 kPa | 59.733 | –
250.05 K, 5998.8 kPa | 91.41 | –
250.05 K, 8000 kPa | 123.81 | –
250.05 K, 10007 kPa | 156.529 | –
250.06 K, 1944.1 kPa | – | 29.337
250.06 K, 3982.7 kPa | – | 61.879
250.06 K, 5984.1 kPa | – | 95.441
250.06 K, 7996.2 kPa | – | 130.387
250.06 K, 16016 kPa | – | 267.875
250.06 K, 18019 kPa | – | 298.361
250.06 K, 19997 kPa | – | 326.225
250.07 K, 10003 kPa | – | 165.836
250.07 K, 12006 kPa | – | 201.013
250.07 K, 14014 kPa | – | 235.308
275.01 K, 6002 kPa | 80.825 | –
275.01 K, 7997.9 kPa | 108.505 | –
275.02 K, 1988.5 kPa | – | 26.992
275.02 K, 3997.1 kPa | 53.276 | –
275.02 K, 4000.6 kPa | – | 55.255
275.02 K, 5998 kPa | – | 84.088
275.02 K, 7994.3 kPa | – | 113.405
275.02 K, 10004 kPa | 136.29 | –
275.02 K, 12009 kPa | 163.678 | –
275.02 K, 14013 kPa | 190.433 | –
275.02 K, 16022 kPa | 216.33 | –
275.02 K, 18057 kPa | 241.448 | –
275.02 K, 19841 kPa | 262.442 | –
275.03 K, 9995.5 kPa | – | 142.952
275.03 K, 12000 kPa | – | 172.315
275.03 K, 14001 kPa | – | 201.02
275.03 K, 15981 kPa | – | 228.492
275.03 K, 17994 kPa | – | 255.193
275.03 K, 19983 kPa | – | 280.214
299.96 K, 17994 kPa | – | 224.784
299.96 K, 19165 kPa | 226.098 | –
299.96 K, 19977 kPa | – | 247.119
299.97 K, 1992.1 kPa | – | 24.615
299.97 K, 1997.9 kPa | 23.945 | –
299.97 K, 3982.3 kPa | – | 49.692
299.97 K, 3996.5 kPa | 48.22 | –
299.97 K, 5996.4 kPa | 72.692 | –
299.97 K, 5999.2 kPa | – | 75.467
299.97 K, 7999.7 kPa | 97.214 | –
299.97 K, 8007.8 kPa | – | 101.3
299.97 K, 10002 kPa | 121.553 | –
299.97 K, 10003 kPa | – | 126.921
299.97 K, 12006 kPa | 145.55 | –
299.97 K, 12008 kPa | – | 152.379
299.97 K, 13991 kPa | – | 177.09
299.97 K, 14010 kPa | 169.025 | –
299.97 K, 15969 kPa | – | 201.068
299.97 K, 16014 kPa | 191.829 | –
299.97 K, 17869 kPa | 212.244 | –
324.98 K, 1996 kPa | 21.979 | –
324.98 K, 1996.1 kPa | – | 22.645
324.98 K, 3995.9 kPa | – | 45.557
324.98 K, 3996.2 kPa | 44.111 | –
324.98 K, 5991.8 kPa | 66.201 | –
324.98 K, 5996.6 kPa | – | 68.599
324.98 K, 7997.6 kPa | – | 91.632
324.98 K, 8019.2 kPa | 88.521 | –
324.98 K, 9996.9 kPa | – | 114.495
324.98 K, 9998.9 kPa | 110.087 | –
324.98 K, 11991 kPa | – | 137.002
324.98 K, 11999 kPa | 131.525 | –
324.98 K, 13983 kPa | 152.335 | –
324.98 K, 14014 kPa | – | 159.405
324.98 K, 16001 kPa | 172.971 | –
324.98 K, 16006 kPa | – | 180.933
324.98 K, 18001 kPa | 192.79 | –
324.98 K, 18016 kPa | – | 202.007
324.98 K, 19621 kPa | 208.36 | –
324.98 K, 19978 kPa | – | 221.898
349.96 K, 1996.1 kPa | 20.34 | –
349.96 K, 3996.6 kPa | 40.709 | –
349.96 K, 5996.7 kPa | 60.978 | –
349.97 K, 1995.9 kPa | – | 20.947
349.97 K, 3995.3 kPa | – | 41.993
349.97 K, 5996.9 kPa | – | 63.049
349.97 K, 7995.4 kPa | – | 83.959
349.97 K, 7995.8 kPa | 81.051 | –
349.97 K, 9997.5 kPa | 100.892 | –
349.97 K, 9999.5 kPa | – | 104.724
349.97 K, 11998 kPa | 120.373 | 125.127
349.97 K, 13995 kPa | 139.425 | –
349.97 K, 14004 kPa | – | 145.221
349.97 K, 16000 kPa | 158.084 | –
349.97 K, 16008 kPa | – | 164.842
349.97 K, 17994 kPa | 176.127 | –
349.97 K, 18008 kPa | – | 183.902
349.97 K, 19378 kPa | 188.339 | –
349.97 K, 19983 kPa | – | 202.168
374.95 K, 1963.6 kPa | – | 19.172
374.95 K, 3953.7 kPa | – | 38.571
374.95 K, 5995.6 kPa | – | 58.378
374.95 K, 7997.3 kPa | – | 77.627
374.95 K, 9986.3 kPa | – | 96.527
374.95 K, 11945 kPa | – | 114.852
374.96 K, 13990 kPa | – | 133.615
374.96 K, 15999 kPa | – | 151.646
374.96 K, 17992 kPa | – | 169.101
374.96 K, 19972 kPa | – | 185.971
374.97 K, 1974.6 kPa | 18.733 | –
374.97 K, 3962.2 kPa | 37.494 | –
374.97 K, 5994.5 kPa | 56.518 | –
374.97 K, 7989.9 kPa | 74.983 | –
374.97 K, 9982.5 kPa | 93.148 | –
374.97 K, 11981 kPa | 111.044 | –
374.97 K, 13972 kPa | 128.504 | –
374.97 K, 15966 kPa | 145.587 | –
374.98 K, 17960 kPa | 162.237 | –
374.98 K, 18719 kPa | 168.45 | –
400.02 K, 1995.3 kPa | – | 18.223
400.02 K, 3995.7 kPa | – | 36.397
400.02 K, 5995.4 kPa | – | 54.424
400.02 K, 7991.2 kPa | – | 72.219
400.02 K, 9990.8 kPa | – | 89.804
400.02 K, 11986 kPa | – | 107.065
400.02 K, 13988 kPa | – | 124.054
400.02 K, 15977 kPa | – | 140.583
400.02 K, 17818 kPa | – | 155.538
400.03 K, 3994.9 kPa | 35.321 | –
400.03 K, 9992.9 kPa | 86.844 | –
400.04 K, 1995.9 kPa | 17.722 | –
400.04 K, 5992.1 kPa | 52.72 | –
400.04 K, 7980.9 kPa | 69.818 | –
400.04 K, 11987 kPa | 103.403 | –
400.04 K, 13992 kPa | 119.725 | –
400.04 K, 15984 kPa | 135.572 | –
400.04 K, 17815 kPa | 149.796 | –
400.04 K, 18908 kPa | 158.136 | –
